Test results: PubChem BioAssay (NCI)
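All cell lines were grown in 96-well plates and treated with compound for 48 hours. TGI: total growth inhibition.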

Columns and labels:
Test in all cases: DTP human tumour cell line panel, 48 h
T-47D breast = tested on: T-47D breast
MALME-3M melanoma = tested on: MALME-3M melanoma
MCF7 breast = tested on: MCF7 breast
K-562 leukemia = tested on: K-562 leukemia
OVCAR-5 ovarian = tested on: OVCAR-5 ovarian
HCT-116 colon = tested on: HCT-116 colon
OVCAR-4 ovarian = tested on: OVCAR-4 ovarian
PC-3 prostate = tested on: PC-3 prostate
SF-539 CNS = tested on: SF-539 CNS
CCRF-CEM leukemia = tested on: CCRF-CEM leukemia
SF-295 CNS = tested on: SF-295 CNS
M14 melanoma = tested on: M14 melanoma
U251 CNS = tested on: U251 CNS
NCI-H522 lung = tested on: NCI-H522 lung
HOP-92 NSCLC = tested on: HOP-92 NSCLC
RXF 393 renal = tested on: RXF 393 renal
SK-MEL-2 melanoma = tested on: SK-MEL-2 melanoma
NCI-H23 lung = tested on: NCI-H23 lung
A498 renal = tested on: A498 renal
SN12C renal = tested on: SN12C renal
SNB-75 CNS = tested on: SNB-75 CNS
HT29 colon = tested on: HT29 colon
SR leukemia = tested on: SR leukemia
BT-549 breast = tested on: BT-549 breast
HS 578T breast = tested on: HS 578T breast
A549 NSCLC = tested on: A549 NSCLC
UO-31 renal = tested on: UO-31 renal
SW-620 colon = tested on: SW-620 colon
NCI-H460 lung = tested on: NCI-H460 lung
LOX IMVI melanoma = tested on: LOX IMVI melanoma
UACC-62 melanoma = tested on: UACC-62 melanoma
EKVX NSCLC = tested on: EKVX NSCLC
SK-MEL-5 melanoma = tested on: SK-MEL-5 melanoma
UACC-257 melanoma = tested on: UACC-257 melanoma
HOP-62 NSCLC = tested on: HOP-62 NSCLC
COLO 205 colon = tested on: COLO 205 colon
OVCAR-8 ovarian = tested on: OVCAR-8 ovarian
IGROV1 ovarian = tested on: IGROV1 ovarian
TK-10 renal = tested on: TK-10 renal
CAKI-1 renal = tested on: CAKI-1 renal
SK-MEL-28 melanoma = tested on: SK-MEL-28 melanoma
KM12 colon = tested on: KM12 colon
MOLT-4 leukemia = tested on: MOLT-4 leukemia
HCT-15 colon = tested on: HCT-15 colon
RPMI-8226 leukemia = tested on: RPMI-8226 leukemia
ACHN renal = tested on: ACHN renal
HL-60(TB) leukemia = tested on: HL-60(TB) leukemia
786-0 renal = tested on: 786-0 renal
HCC-2998 colon = tested on: HCC-2998 colon
SNB-19 CNS = tested on: SNB-19 CNS
DU-145 prostate = tested on: DU-145 prostate
MDA-MB-435 = tested on: MDA-MB-435
SF-268 CNS = tested on: SF-268 CNS
NCI-H226 lung = tested on: NCI-H226 lung
SK-OV-3 ovarian = tested on: SK-OV-3 ovarian
NCI/ADR-RES ovarian = tested on: NCI/ADR-RES ovarian
MDA-MB-231 breast = tested on: MDA-MB-231 breast
OVCAR-3 ovarian = tested on: OVCAR-3 ovarian
MDA-N = tested on: MDA-N

Q: Which TGI (T-47D breast) does the source give for `Nc1ccccc1SCc1csc(-c2ccc(Cl)cc2)n1` here?
A: Its TGI is 23.4 µM.

Q: And the TGI (MALME-3M melanoma)?
A: Its TGI is 47 µM.

Q: And the TGI (MCF7 breast)?
A: The TGI was 71.8 µM.

Q: What about the TGI (K-562 leukemia) of the same compound?
A: Its TGI is 63.9 µM.

Q: What about the TGI (OVCAR-5 ovarian) of the same compound?
A: Its TGI is over 95.2 µM.

Q: What about the TGI (HCT-116 colon) of the same compound?
A: The TGI was over 100 µM.

Q: What about the TGI (OVCAR-4 ovarian) of the same compound?
A: Its TGI is over 77.1 µM.

Q: What about the TGI (PC-3 prostate) of the same compound?
A: The TGI was over 71.5 µM.

Q: And the TGI (SF-539 CNS)?
A: The TGI was 53.2 µM.

Q: What about the TGI (CCRF-CEM leukemia) of the same compound?
A: Its TGI is 67.1 µM.

Q: What about the TGI (SF-295 CNS) of the same compound?
A: The TGI was over 100 µM.

Q: What about the TGI (M14 melanoma) of the same compound?
A: Its TGI is 41.7 µM.

Q: And the TGI (U251 CNS)?
A: Its TGI is 60.1 µM.

Q: And the TGI (NCI-H522 lung)?
A: Its TGI is 31.1 µM.

Q: What about the TGI (HOP-92 NSCLC) of the same compound?
A: Its TGI is 60.1 µM.

Q: And the TGI (RXF 393 renal)?
A: Its TGI is 60.4 µM.

Q: And the TGI (SK-MEL-2 melanoma)?
A: The TGI was 35.2 µM.

Q: What about the TGI (NCI-H23 lung) of the same compound?
A: Its TGI is over 84.6 µM.

Q: And the TGI (A498 renal)?
A: The TGI was 55.9 µM.

Q: And the TGI (SN12C renal)?
A: Its TGI is 34.2 µM.

Q: And the TGI (SNB-75 CNS)?
A: Its TGI is over 100 µM.

Q: What about the TGI (HT29 colon) of the same compound?
A: Its TGI is 46.2 µM.

Q: What about the TGI (SR leukemia) of the same compound?
A: Its TGI is 29.9 µM.

Q: What about the TGI (BT-549 breast) of the same compound?
A: Its TGI is 72.1 µM.

Q: What about the TGI (HS 578T breast) of the same compound?
A: Its TGI is over 91.5 µM.

Q: What about the TGI (A549 NSCLC) of the same compound?
A: Its TGI is over 100 µM.

Q: And the TGI (UO-31 renal)?
A: Its TGI is 46.6 µM.

Q: And the TGI (SW-620 colon)?
A: Its TGI is over 100 µM.

Q: And the TGI (NCI-H460 lung)?
A: The TGI was over 77.2 µM.

Q: What about the TGI (LOX IMVI melanoma) of the same compound?
A: Its TGI is 35.2 µM.

Q: And the TGI (UACC-62 melanoma)?
A: The TGI was over 64 µM.

Q: What about the TGI (EKVX NSCLC) of the same compound?
A: The TGI was 86.9 µM.

Q: And the TGI (SK-MEL-5 melanoma)?
A: The TGI was 28.7 µM.

Q: And the TGI (UACC-257 melanoma)?
A: The TGI was over 77.7 µM.

Q: What about the TGI (HOP-62 NSCLC) of the same compound?
A: The TGI was over 90.6 µM.

Q: What about the TGI (COLO 205 colon) of the same compound?
A: The TGI was 34.6 µM.

Q: What about the TGI (OVCAR-8 ovarian) of the same compound?
A: The TGI was over 100 µM.

Q: What about the TGI (IGROV1 ovarian) of the same compound?
A: The TGI was over 100 µM.

Q: And the TGI (TK-10 renal)?
A: Its TGI is over 100 µM.

Q: What about the TGI (CAKI-1 renal) of the same compound?
A: The TGI was over 100 µM.

Q: And the TGI (SK-MEL-28 melanoma)?
A: The TGI was over 94.5 µM.

Q: And the TGI (KM12 colon)?
A: Its TGI is 47.4 µM.

Q: And the TGI (MOLT-4 leukemia)?
A: The TGI was 25 µM.

Q: What about the TGI (HCT-15 colon) of the same compound?
A: The TGI was over 82.1 µM.

Q: What about the TGI (RPMI-8226 leukemia) of the same compound?
A: Its TGI is 44.7 µM.

Q: What about the TGI (ACHN renal) of the same compound?
A: The TGI was 73.2 µM.

Q: What about the TGI (HL-60(TB) leukemia) of the same compound?
A: The TGI was 23.9 µM.

Q: And the TGI (786-0 renal)?
A: The TGI was 47.5 µM.

Q: And the TGI (HCC-2998 colon)?
A: The TGI was 47.1 µM.

Q: What about the TGI (SNB-19 CNS) of the same compound?
A: Its TGI is over 100 µM.

Q: And the TGI (DU-145 prostate)?
A: The TGI was 99.1 µM.

Q: And the TGI (MDA-MB-435)?
A: Its TGI is 37.8 µM.

Q: What about the TGI (SF-268 CNS) of the same compound?
A: Its TGI is over 100 µM.

Q: What about the TGI (NCI-H226 lung) of the same compound?
A: Its TGI is 62.5 µM.

Q: What about the TGI (SK-OV-3 ovarian) of the same compound?
A: Its TGI is over 89.6 µM.

Q: What about the TGI (NCI/ADR-RES ovarian) of the same compound?
A: Its TGI is 66.4 µM.

Q: And the TGI (MDA-MB-231 breast)?
A: Its TGI is 54.6 µM.

Q: And the TGI (OVCAR-3 ovarian)?
A: Its TGI is over 67.6 µM.

Q: How did the TGI (MALME-3M melanoma) turn out when `Cc1csc2nc(-c3ccc(Cl)c([N+](=O)[O-])c3)c(/C=N/N=C(N)N)n12` was run?
A: Its TGI is 4.38 µM.

Q: What about the TGI (MCF7 breast) of the same compound?
A: Its TGI is 3.67 µM.

Q: And the TGI (OVCAR-5 ovarian)?
A: Its TGI is 2.55 µM.

Q: And the TGI (HCT-116 colon)?
A: Its TGI is 3.97 µM.

Q: And the TGI (OVCAR-4 ovarian)?
A: The TGI was 3.4 µM.

Q: And the TGI (PC-3 prostate)?
A: The TGI was 2.81 µM.

Q: And the TGI (SF-539 CNS)?
A: The TGI was 2.98 µM.

Q: What about the TGI (SF-295 CNS) of the same compound?
A: Its TGI is 2.78 µM.

Q: And the TGI (M14 melanoma)?
A: The TGI was 3.38 µM.

Q: And the TGI (U251 CNS)?
A: Its TGI is 2.97 µM.

Q: What about the TGI (HOP-92 NSCLC) of the same compound?
A: Its TGI is 1.38 µM.

Q: What about the TGI (SK-MEL-2 melanoma) of the same compound?
A: The TGI was 2.48 µM.

Q: What about the TGI (NCI-H23 lung) of the same compound?
A: Its TGI is 3.29 µM.

Q: What about the TGI (A498 renal) of the same compound?
A: Its TGI is 2.85 µM.

Q: And the TGI (SN12C renal)?
A: The TGI was 3.68 µM.

Q: And the TGI (SNB-75 CNS)?
A: The TGI was 3.37 µM.

Q: And the TGI (HT29 colon)?
A: The TGI was 3.26 µM.

Q: And the TGI (A549 NSCLC)?
A: Its TGI is 3.54 µM.

Q: What about the TGI (UO-31 renal) of the same compound?
A: The TGI was 2.33 µM.

Q: And the TGI (SW-620 colon)?
A: The TGI was 1.35 µM.

Q: What about the TGI (LOX IMVI melanoma) of the same compound?
A: Its TGI is 2.97 µM.

Q: And the TGI (UACC-62 melanoma)?
A: The TGI was 3.3 µM.

Q: What about the TGI (EKVX NSCLC) of the same compound?
A: Its TGI is 2.93 µM.

Q: What about the TGI (SK-MEL-5 melanoma) of the same compound?
A: Its TGI is 2.94 µM.

Q: And the TGI (UACC-257 melanoma)?
A: The TGI was 1.82 µM.

Q: What about the TGI (HOP-62 NSCLC) of the same compound?
A: Its TGI is 3.41 µM.

Q: And the TGI (COLO 205 colon)?
A: Its TGI is 2.37 µM.

Q: And the TGI (OVCAR-8 ovarian)?
A: The TGI was 1.57 µM.

Q: What about the TGI (SK-MEL-28 melanoma) of the same compound?
A: Its TGI is 3.45 µM.

Q: And the TGI (KM12 colon)?
A: The TGI was 4.75 µM.

Q: What about the TGI (HCT-15 colon) of the same compound?
A: The TGI was 3.02 µM.

Q: And the TGI (ACHN renal)?
A: Its TGI is 2.94 µM.

Q: And the TGI (786-0 renal)?
A: Its TGI is 2.93 µM.

Q: And the TGI (MDA-N)?
A: Its TGI is 2.69 µM.

Q: And the TGI (DU-145 prostate)?
A: Its TGI is 4.86 µM.

Q: And the TGI (MDA-MB-435)?
A: Its TGI is 3.13 µM.

Q: And the TGI (SK-OV-3 ovarian)?
A: Its TGI is 3.24 µM.

Q: What about the TGI (NCI/ADR-RES ovarian) of the same compound?
A: Its TGI is 5.95 µM.

Q: And the TGI (MDA-MB-231 breast)?
A: The TGI was 3.68 µM.
